These results are taken from patent US8188135B2, “Compounds as cannabinoid receptor ligands” (priority 2008, dated 2012).

For series [1], the target named is T1, rat CB2 (Rattus norvegicus, UniProt Q9QZN9).
T1 sequence (Q9QZN9 1-360): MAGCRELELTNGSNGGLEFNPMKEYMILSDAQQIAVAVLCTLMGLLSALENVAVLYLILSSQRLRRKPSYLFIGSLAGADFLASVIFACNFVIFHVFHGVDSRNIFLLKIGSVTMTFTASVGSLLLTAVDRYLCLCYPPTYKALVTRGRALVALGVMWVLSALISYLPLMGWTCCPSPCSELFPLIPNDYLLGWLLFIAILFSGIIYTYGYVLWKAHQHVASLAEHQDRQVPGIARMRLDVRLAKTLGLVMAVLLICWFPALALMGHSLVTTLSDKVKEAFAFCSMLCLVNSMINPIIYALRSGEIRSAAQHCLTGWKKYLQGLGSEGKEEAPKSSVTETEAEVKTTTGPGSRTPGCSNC
In words: rat CB2 cyclase functional assay (HitHunter cAMP). It counts as cell-based. Set-up: expressed in transfected cells; host or cells: HEK. Particulars: rat CB2 cyclase (EC50, nM), HEK cells, forskolin 18 μM. In short, it runs like this:
(§1)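 HEK cells expressing rat CB1 or CB2, 10,000 cells/well, incubated 20 min at 37° C with test ligands plus forskolin (37 μM for CB1, 18 μM for CB2) in DPBS with 0.01% BSA. cAMP read by enzyme-complementation luminescence after lysis; EC50 from sigmoidal dose-response fit.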

Another series concerns the target T2, Rat CB1 (Rattus norvegicus, UniProt P20272).
T2 construct: expressed in transfected cells; host or cells: HEK
Nature of the series: rat CB1 cyclase functional assay (HitHunter cAMP). Particulars: Rat CB1 cyclase (EC50, nM), HEK cells, forskolin 37 μM. The series is classed as cell-based. In short, it runs like this: as §1

A short description of series [2]: pharmacokinetic studies in rats. The following applies: male, Sprague-Dawley, rat, in vivo; for clearance / half-life: iv, 3 micromole/kg; for bioavailability: po, 10 micromole/kg. As to the method:
Male Sprague-Dawley rats, weighing 250-400 g, were obtained from Charles Rivers Laboratories. Pharmacokinetic studies were conducted in three groups of rats; each group contained three animals. All groups were dosed with a solution formulation. The first group of three rats received an intravenous dose, administered under isoflurane anesthetic. The second group received an intraperitoneal dose and the third group received an oral dose, administered by gavage. Sequential blood samples were obtained from a tail vein of each animal for 8-24 hours after dosing. Plasma was separated by centrifugation and stored frozen until analysis.
Half life […] and plasma clearance values are based on intravenous administration (3 micromole/kg).
Half life (t1/2) and plasma clearance values are based on intravenous administration (3 micromole/kg).

Another series deals with T3, human CB2 receptors (Homo sapiens, UniProt P34972).
T3 construct: expressed in transfected cells; host or cells: HEK293
T3 sequence (P34972 whole entry): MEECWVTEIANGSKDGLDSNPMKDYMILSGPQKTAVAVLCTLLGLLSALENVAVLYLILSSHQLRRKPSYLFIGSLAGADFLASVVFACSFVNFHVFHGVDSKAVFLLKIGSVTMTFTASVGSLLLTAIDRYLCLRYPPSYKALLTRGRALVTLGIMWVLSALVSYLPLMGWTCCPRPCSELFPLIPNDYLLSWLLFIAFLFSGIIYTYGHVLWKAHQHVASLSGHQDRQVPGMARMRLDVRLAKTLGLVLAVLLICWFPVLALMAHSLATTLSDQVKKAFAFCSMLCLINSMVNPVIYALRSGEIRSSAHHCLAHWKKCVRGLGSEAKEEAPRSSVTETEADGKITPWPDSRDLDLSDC
In words: human CB2 radioligand binding assay ([3H]CP 55,940 competition). The following applies: human CB2 (Ki, nM), HEK293 membranes, 0.5 nM [3H]CP 55,940. In short, it runs like this:
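Membranes from HEK293 cells stably expressing human CB2 (5 μg protein/well) competed against 0.5 nM [3H]CP 55,940 with five concentrations of test ligand (0.01 nM to 10 μM), pH 7.4 Tris buffer with BSA, 90 min at 30 °C. Filtration and scintillation counting; nonspecific binding with 10 μM unlabeled CP 55,940.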

Series [3] deals with T1, rat CB2. Nature of the series: rat CB2 radioligand binding assay ([3H]CP 55,940 competition). Set-up: expressed in transfected cells; host or cells: HEK293. Particulars: rat CB2 (Ki, nM), HEK293 membranes, 0.5 nM [3H]CP 55,940. In short, it runs like this:
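Membranes (20 μg protein/well) from HEK293 cells stably expressing the receptor were incubated 45 min at 30 °C with 0.5 nM [3H]CP 55,940 and five concentrations of test compound (0.01 nM–10 μM) in Tris/EDTA/MgCl2/BSA buffer, pH 7.4. Bound ligand was measured by GF/C filtration and scintillation counting; 10 μM CP 55,940 defined nonspecific binding.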

T2 sequence (P20272 whole entry): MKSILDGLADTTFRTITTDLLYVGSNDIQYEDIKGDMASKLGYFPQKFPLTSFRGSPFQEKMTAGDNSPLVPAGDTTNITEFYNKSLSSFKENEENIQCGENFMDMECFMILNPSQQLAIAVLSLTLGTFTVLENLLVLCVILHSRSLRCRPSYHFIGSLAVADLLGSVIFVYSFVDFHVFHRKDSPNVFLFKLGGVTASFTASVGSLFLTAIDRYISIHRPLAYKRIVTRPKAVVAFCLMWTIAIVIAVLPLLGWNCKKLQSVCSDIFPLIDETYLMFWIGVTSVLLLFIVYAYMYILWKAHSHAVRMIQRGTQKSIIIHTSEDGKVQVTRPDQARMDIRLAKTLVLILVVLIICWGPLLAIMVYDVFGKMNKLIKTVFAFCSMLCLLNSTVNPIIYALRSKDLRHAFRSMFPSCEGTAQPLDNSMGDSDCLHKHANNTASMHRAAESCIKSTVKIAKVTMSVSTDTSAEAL

As to `Cn1c(C(C)(C)C)c/c(=N\C(=O)c2cc(C#N)ccc2OCC(C)(C)O)n1C[C@H]1CCCO1` [Example 90, N-{(3E)-5-tert-butyl-1-methyl-2-[(2R)-tetrahydrofuran-2-ylmethyl]-1,2-dihydro-3 H-pyrazol-3-ylidene}-5-cyano-2-(2-hydroxy-2-methylpropoxy)benzamide], the EC50 is 1.8 nM at rat CB2 [1] and above 27000 nM at Rat CB1. The compound also showed a clearance in series [2] of 41.7 mL/min/kg. Further, in series [2], the half-life is 2.1 h. This compound also registered a bioavailability in series [2] of 28%. Also, the Ki at human CB2 receptors worked out at 41 nM; at rat CB2 [3], 11 nM.

On to `Cn1c(C(C)(C)C)c/c(=N\C(=O)c2cc(C#N)ccc2OCC(C)(C)O)n1CC1CCCC1` [Example 127, N-[(3E)-5-tert-butyl-2-(cyclopentylmethyl)-1-methyl-1,2-dihydro-3H-pyrazol-3-ylidene]-5-cyano-2-(2-hydroxy-2-methylpropoxy)benzamide], for which the EC50 on rat CB2 [1] stood at 1.78 nM. For the same compound, the EC50 at Rat CB1 is above 27000 nM. Also, in series [2], the clearance is 46.7 mL/min/kg, the half-life is 0.8 h and the bioavailability is 60%. On human CB2 receptors, this compound gave a Ki of 47 nM. The compound also registered a Ki at rat CB2 [3] of 12 nM.

Consider `Cn1c(C(C)(C)C)c/c(=N\C(=O)c2cc(C(F)(F)F)ccc2OCCC(C)(C)O)n1C[C@H]1CCCO1` [Example 20, N-{(3E)-5-tert-butyl-1-methyl-2-[(2R)-tetrahydrofuran-2-ylmethyl]-1,2-dihydro-3H-pyrazol-3-ylidene}-2-(3-hydroxy-3-methylbutoxy)-5-(trifluoromethyl)benzamide], for which, on rat CB2 [1], the EC50 worked out at 0.57 nM. For the same compound, at Rat CB1, the EC50 is 6850 nM. In addition, in series [2], the clearance is 13.3 mL/min/kg, the half-life is 3.9 h and the bioavailability was 27%. Also, on human CB2 receptors, the Ki was determined as 35 nM. For the same compound, the affinity on rat CB2 [3] corresponds to a Ki of 11 nM.

As for `Cn1c(C(C)(C)C)c/c(=N\C(=O)c2cc(C(F)(F)F)ccc2OCC(C)(C)O)n1CCC(F)(F)F` [Example 87, N-[(3E)-5-tert-butyl-1-methyl-2-(3,3,3-trifluoropropyl)-1,2-dihydro-3H-pyrazol-3-ylidene]-2-(2-hydroxy-2-methylpropoxy)-5-(trifluoromethyl)benzamide], the EC50 on rat CB2 [1] worked out at 0.25 nM. Besides, on Rat CB1, the EC50 came to 3110 nM. Also, in series [2], the clearance was 5 mL/min/kg, the half-life was 3.2 h and the bioavailability was determined as 64%. For the same compound, the Ki at human CB2 receptors was determined as 18 nM. Also, the Ki on rat CB2 [3] came out at 7.6 nM.

`Cn1c(C(C)(C)C)c/c(=N\C(=O)c2cc(C(F)(F)F)ccc2OCC(C)(C)O)n1CC1CCC1` [Example 86, N-[(3E)-5-tert-butyl-2-(cyclobutylmethyl)-1-methyl-1,2-dihydro-3H-pyrazol-3-ylidene]-2-(2-hydroxy-2-methylpropoxy)-5-(trifluoromethyl)benzamide]: at rat CB2 [1], the EC50 turned out to be 0.23 nM. For the same compound, the EC50 on Rat CB1 turned out to be 4020 nM. Also, in series [2], the clearance is 5 mL/min/kg, the half-life is 5.4 h and the bioavailability came out at 50%. For the same compound, affinity on human CB2 receptors was put at a Ki of 8.3 nM. The compound also showed a Ki at rat CB2 [3] of 4.3 nM.

For the compound `Cn1c(C(C)(C)C)c/c(=N\C(=O)c2cc(C(F)(F)F)ccc2OCCC(C)(C)O)n1CC1CC1` [Example 51, N-[(3E)-5-tert-butyl-2-(cyclopropylmethyl)-1-methyl-1,2-dihydro-3H-pyrazol-3-ylidene]-2-(3-hydroxy-3-methylbutoxy)-5-(trifluoromethyl)benzamide], the EC50 on rat CB2 [1] was 0.46 nM; on Rat CB1 it was above 27000 nM. Besides, in series [2], the clearance was 8.33 mL/min/kg. This compound also gave a half-life in series [2] of 3.2 h. The compound also had a bioavailability in series [2] of 52%. Further, the Ki on human CB2 receptors was found to be 80 nM; at rat CB2 [3], 15 nM.

As to `CCCCn1/c(=N/C(=O)c2cc(C(F)(F)F)ccc2OCC(C)(C)O)cc(C(C)(C)C)n1C` [Example 81, N-[(3E)-2-butyl-5-tert-butyl-1-methyl-1,2-dihydro-3H-pyrazol-3-ylidene]-2-(2-hydroxy-2-methylpropoxy)-5-(trifluoromethyl)benzamide], the figures for the 50% effective concentration (EC50) on rat CB2 [1] and at Rat CB1 were 0.5 nM and 3360 nM, respectively. This compound showed a clearance in series [2] of 3.33 mL/min/kg. In series [2], this compound showed a half-life of 5 h. Further, in series [2], the bioavailability stood at 61%. Further, the Ki at human CB2 receptors is 44 nM; at rat CB2 [3] it was 25 nM.

For the compound `Cn1c(C(C)(C)C)c/c(=N\C(=O)c2cc(Cl)ccc2OCC(C)(C)O)n1C[C@H]1CCCO1` [Example 89, N-{(3E)-5-tert-butyl-1-methyl-2-[(2R)-tetrahydrofuran-2-ylmethyl]-1,2-dihydro-3 H-pyrazol-3-ylidene}-5-chloro-2-(2-hydroxy-2-methylpropoxy)benzamide], the EC50 at rat CB2 [1] was determined as 0.61 nM. Besides, on Rat CB1, the EC50 stood at 2320 nM. In series [2], this compound showed a clearance of 16.7 mL/min/kg, a half-life of 1.6 h and a bioavailability of 37%. This compound also gave an inhibition constant Ki at human CB2 receptors of 19 nM. The compound also registered an inhibition constant (Ki) on rat CB2 [3] of 7.6 nM.

For the compound `Cn1c(C2(C)CC2)c/c(=N\C(=O)c2cc(C(F)(F)F)ccc2OCC(C)(C)O)n1C[C@H]1CCCO1` [Example 70, 2-(2-hydroxy-2-methylpropoxy)-N-{(3E)-1-methyl-5-(1-methylcyclopropyl)-2-[(2 R)-tetrahydrofuran-2-ylmethyl]-1,2-dihydro-3H-pyrazol-3-ylidene}-5-(trifluoromethyl)benzamide], the results for the EC50 at rat CB2 [1] and at Rat CB1 were 0.47 nM and above 27000 nM, respectively. In series [2], this compound showed a clearance of 30 mL/min/kg. Besides, in series [2], the half-life is 2.3 h. The bioavailability in series [2] came out at 46%. Also, the Ki at human CB2 receptors came out at 27 nM; at rat CB2 [3], 4.4 nM.

For `Cn1c(C2(C)CC2)c/c(=N\C(=O)c2cc(C(F)(F)F)ccc2OCCC(C)(C)O)n1C[C@H]1CCCO1` [Example 68, 2-(3-hydroxy-3-methylbutoxy)-N-{(3E)-1-methyl-5-(1-methylcyclopropyl)-2-[(2 R)-tetrahydrofuran-2-ylmethyl]-1,2-dihydro-3H-pyrazol-3-ylidene}-5-(trifluoromethyl)benzamide], the EC50 at rat CB2 [1] was 0.2 nM; at Rat CB1, above 27000 nM. Besides, the clearance in series [2] is 40 mL/min/kg. Moreover, in series [2], the half-life was 2.2 h. Also, the bioavailability in series [2] came out at 25%. The Ki turned out to be 77 nM on human CB2 receptors and 13 nM at rat CB2 [3].

`Cn1c(C(C)(C)C)c/c(=N\C(=O)c2cc(C(F)(F)F)ccc2OCC(C)(C)O)n1C[C@H]1CCCO1` [Example 5, N-{(3E)-5-tert-butyl-1-methyl-2-[(2R)-tetrahydrofuran-2-ylmethyl]-1,2-dihydro-3H-pyrazol-3-ylidene}-2-(2-hydroxy-2-methylpropoxy)-5-(trifluoromethyl)benzamide]: on rat CB2 [1], the EC50 turned out to be 0.22 nM. The EC50 on Rat CB1 was found to be 7690 nM. In addition, in series [2], the clearance is 18.3 mL/min/kg, the half-life was 2.1 h and the bioavailability came out at 37%. Further, the affinity on human CB2 receptors, expressed as Ki, was 10 nM. For the same compound, the affinity on rat CB2 [3], expressed as Ki, was 5.5 nM.

As for `Cn1c(C(C)(C)C)c/c(=N\C(=O)c2cc(C(F)(F)F)ccc2OC[C@@H]2CCN2S(C)(=O)=O)n1CC1CC1` [Example 63, N-[(3E)-5-tert-butyl-2-(cyclopropylmethyl)-1-methyl-1,2-dihydro-3H-pyrazol-3-ylidene]-2-{[(2S)-1-(methylsulfonyl)azetidin-2-yl]methoxy}-5-(trifluoromethyl)benzamide], the EC50 was 2.5 nM on rat CB2 [1] and above 27000 nM on Rat CB1. For the same compound, the Ki on human CB2 receptors came out at 301 nM; on rat CB2 [3], 139 nM.

As to `Cn1c(C(C)(C)C)c/c(=N\C(=O)c2cc(C(F)(F)F)ccc2OCC(O)CO)n1C[C@H]1CCCO1` (stereo partly shown) [Example 42], the EC50 on rat CB2 [1] stood at 0.34 nM; at Rat CB1, 6100 nM. The Ki at human CB2 receptors worked out at 20 nM; on rat CB2 [3], 11 nM.

As usually defined, the EC50 is the concentration needed to bring the measured effect to its halfway point. One may read the clearance as a measure of how efficiently the substance is removed, as volume per time. Low values mean inefficient removal, high ones efficient removal. Broadly, the half-life is how long it takes for the measured level to halve. Read a high half-life as slow decline. As a reminder, the bioavailability is the share of a dose that reaches the circulation, judged against a reference dose that is usually intravenous. A low value points to poor availability. By Ki is commonly meant the equilibrium dissociation constant of an inhibitor or competing ligand from its target. Low readings indicate a stronger hold on the target, high ones a looser hold on the target.
